The numbers were not newly measured in US20120101089A1, “Anti-Emetic Substance” (priority 2010, published 2012), which cites them from elsewhere.

The conditions of data set [1]: 10 mg intravenously.
The conditions of data set [2]: common adverse effects associated with single agents, listed per class.
For data set [3] the following is noted: 15 mg and 0.15 mg/kg i.v. immediately after umbilical cord clamped; lidocaine, morphine epidural.

Turning to `CCN(CC)CCNC(=O)c1cc(Cl)c(N)cc1OC` [metoclopramide, Metoclopramide], in data set [1], the “treatment of PONV versus comparators” value was “as effective as intravenous droperidol 1.25 mg and more effective than intravenous propofol 10 mg”. Moreover, in data set [2], the “Adverse Effect” value is reported as “Sedation, EPS, restlessness,”. Further, where the note is “additional 10 to 20 mg i.m. at the end of the operation”, the “effect on emetic effects of opioids” value is listed as “reduced the emetic effects of pethidine, but had less effect when morphine was given”. The “effect on pre-anaesthetic emetic effects of pethidine” value (preoperative 10 and 20 mg intramuscularly) is on record as “abolished the pre-anaesthetic emetic effects of pethidine”. Besides, the “incidence of nausea and vomiting” value in data set [3] is “effectively reduce the incidence of nausea and vomiting”.
